Laboratory results: ChEMBL document CHEMBL1156829 (Proc Natl Acad Sci U S A, 2008)

Legend:
[1] = NOVARTIS: Cytotoxicity against human hepatocellular carcinoma cell line (Huh7); assay type: toxicity, cell-based, Huh-7; conditions: Huh7 cells (hepatocellular carcinoma cell line)
Plasmodium falciparum [2] = test: NOVARTIS: Inhibition of Plasmodium falciparum W2 (drug-resistant) proliferation in erythrocyte-based infection assay; assay type: functional, organism-based; conditions: Plasmodium falciparum, W2; read-out: EC50
Plasmodium falciparum [3] = test: NOVARTIS: Inhibition of Plasmodium falciparum 3D7 (drug-susceptible) proliferation in erythrocyte-based infection assay; assay type: functional, organism-based; conditions: Plasmodium falciparum, 3D7

| Structure (SMILES) | CC50 [1] | EC50 (Plasmodium falciparum [2]) | EC50 (Plasmodium falciparum [3]) |
| --- | --- | --- | --- |
| COC1=CC(=O)c2c(ccc3cc(O)ccc23)C1=O | > 10000 nM | 215 nM | 767 nM |
| Cn1c(SCC(=O)Nc2cccc(F)c2)nc2c(c1=O)SCC2 | > 100000 nM | 2150 nM | 2380 nM |
| CCOc1cc(/C=C(\C#N)c2nc3ccccc3[nH]2)ccc1OCc1ccccc1C#N | > 10000 nM | 214 nM | > 1120 nM |
| c1ccc2c(c1)c1c(c3ccccc32)CN2CCCC2C1 (stereo not drawn) | > 10000 nM | 221 nM | 120 nM |
| Cc1ccc(Nc2nc(NCc3ccccc3)c3ccccc3n2)cc1 | 10900 nM | 241 nM | 184 nM |
| CCN(CC)C/C=C/C1(O)c2ccccc2-c2ccccc21 | > 10000 nM | 221 nM | 1010 nM |
| CC(=O)NC(=Cc1ccc(OC(F)F)cc1)C(=O)O | > 100000 nM | 2270 nM | > 12500 nM |
| Cc1cc(Nc2ccc(N(C)C)cc2)n2ncnc2n1 | > 100000 nM | 2270 nM | 6000 nM |
| CCOc1ccc(NC(=O)NC(Cc2c[nH]c3ccccc23)C(=O)N2CCN(C(=O)NC(C)C)C(C)C2)cc1 (stereo not drawn) | > 10000 nM | 223 nM | 259 nM |
| CC1=C(CC(=O)c2ccccc2)C(=O)c2ccccc2C1=O | 13800 nM | 300 nM | 2660 nM |
| Cc1ccc(/C=C/c2ccc3ccccc3[n+]2C)cc1 | > 10000 nM | 217 nM | 131 nM |
| Cc1cc(C)c2cc(CN(CCN(C)C)C(=S)NCCCN(C)C)c(=O)[nH]c2c1 | > 100000 nM | 2150 nM | 2010 nM |
| CN1CCN(c2nc(NCCNc3ccc([N+](=O)[O-])cc3)c3ccccc3n2)CC1 | 19000 nM | 424 nM | 537 nM |
| CN(C)CCNc1ncnc2c1[nH]c1ccc(Br)cc12 | 21100 nM | 476 nM | 100 nM |
| Cc1cccc(CCNc2cc(C)nc3nc(C)nn23)c1 | > 100000 nM | 2290 nM | 2420 nM |
| Cc1ccc(-c2nnc(SCCCC(=O)NC(Cc3ccccc3)c3ccccc3)n2-c2cccc(Cl)c2)cc1 (stereo not drawn) | > 27600 nM | 621 nM | > 12500 nM |
| CCN(CC)c1nc(-c2cccnc2)nc2ccccc12 | 72200 nM | 1600 nM | 5640 nM |
| CSCCN1CCc2ccc3[nH]cc(-c4cccc(Cl)c4)c3c2C1 | > 10000 nM | 224 nM | 108 nM |

| Structure (SMILES) | CC50 [1] | EC50 (Plasmodium falciparum [2]) | EC50 (Plasmodium falciparum [3]) |
| --- | --- | --- | --- |
| CC(=O)Nc1nc(C)c(-c2csc(Nc3ccc(Br)cc3)n2)s1 | 38100 nM | 859 nM | 696 nM |
| COc1cc[n+](OC(=O)N2CCCCC2)c(C)c1 | 36600 nM | 810 nM | 188 nM |
| O=C(c1cccc(F)c1)N1CCN(Cc2ccncc2)CC1 | > 100000 nM | 2170 nM | > 9940 nM |
| COc1ccc(Nc2ccccc2NC(=O)c2cccc(N(C)C)c2)cc1 | > 100000 nM | 2290 nM | 2450 nM |
| c1ccc2c(c1)ccc1cc3cccc[n+]3cc12 | 37000 nM | 795 nM | 1380 nM |
| Cc1ccc(C(=O)N(C)CCCNc2ccnc3cc(Cl)ccc23)cc1 | 5370 nM | 122 nM | 141 nM |
| Cc1ccc(NC(=O)c2ccc(NCCCN3CCCCCC3)c([N+](=O)[O-])c2)cc1F | 16900 nM | 371 nM | 94.1 nM |
| Cc1ccccc1N1C(=O)C2C3c4ccccc4C(C(=O)O)(c4ccccc43)C2C1=O (stereo not drawn) | > 100000 nM | 2190 nM | > 12500 nM |
| Cc1ccc(Nc2nc(NCCO)c3ccccc3n2)cc1C | 4900 nM | 108 nM | 175 nM |
| OCCc1cn(-c2ccccc2)c2ccccc12 | > 10000 nM | 226 nM | 717 nM |
| COc1cccc(CN2CCc3nc(N4CCCCC4)sc3C2)c1 | > 10000 nM | 216 nM | 520 nM |
| COc1ccc2ccccc2c1C1CC(=O)N2CN(Cc3ccco3)CSC2=C1C#N (stereo not drawn) | > 100000 nM | 2180 nM | 3320 nM |
| COC(=O)C1=C(C)N(C)C(C)=C(C(=O)OC)C1c1ccc([N+](=O)[O-])cc1 | > 100000 nM | 2260 nM | 633 nM |
| CCOC(=O)c1nnn(-c2nonc2-n2cccc2)c1CN1CCCCC1 | > 100000 nM | 2210 nM | 2430 nM |
| O=C(C[n+]1cc(-c2ccccc2)n2c1CCC2)c1ccc(C2CCCCC2)cc1 | 17100 nM | 393 nM | 312 nM |
| S=C(NCc1ccco1)NC1CC2CCC(C1)N2Cc1ccccc1 (stereo not drawn) | > 100000 nM | 2240 nM | 865 nM |
| Cc1ccccc1Cn1c(N2CCC(C(=O)NCc3ccccn3)CC2)nc2ccccc21 | > 100000 nM | 2160 nM | 1940 nM |
| CC(C)=CCCC1=CCC(CNCCCN(C)C)C(C)C1 (stereo not drawn) | 18900 nM | 415 nM | 1750 nM |
